Experimental data: patent US9458181B2, “Cathepsin cysteine protease inhibitors” (Merck Sharp & Dohme Corp., priority 2013, dated 2016)

How the values were obtained:
human cathepsin F = molecular target: T1, human cathepsin F (Homo sapiens, UniProt Q9UBX1); assay: Cathepsin F assay (hCat F); format: biochemical; details: human cathepsin F 10 nM, Z-Phe-Arg-AMC 8 μM, pH 5.5, 15 min preincubation; read-out: hCat F IP
T1 sequence (Q9UBX1 271-484): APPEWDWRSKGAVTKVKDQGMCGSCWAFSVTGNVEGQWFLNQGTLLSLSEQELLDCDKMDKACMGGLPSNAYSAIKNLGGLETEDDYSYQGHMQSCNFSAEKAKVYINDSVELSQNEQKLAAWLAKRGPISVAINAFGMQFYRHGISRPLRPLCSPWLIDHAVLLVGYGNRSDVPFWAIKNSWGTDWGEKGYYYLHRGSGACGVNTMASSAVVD
Outline: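 Fluorogenic read-out: cleavage of Z-Phe-Arg-AMC (8 μM in added buffer) was followed at Ex 360/Em 460 nm for 20 min, with dose-response fitting of percent inhibition. Before substrate addition, 10 nM human enzyme was incubated 15 min at room temperature with compounds (DMSO stocks 500–0.025 μM) in pH 5.5 MES/EDTA/DTT buffer containing 10% DMSO.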

human cathepsin K = human cathepsin K (UniProt P43236); assay: Cathepsin K Assay (hrbCat K); format: biochemical; details: human cathepsin K 0.4 nM, Z-Leu-Arg-AMC 8 μM, pH 5.5, 15 min preincubation; read-out: hrbCat K IP
Outline: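 Human cathepsin K (0.4 nM) in pH 5.5 MES buffer with EDTA, DTT and 10% DMSO was preincubated 15 min at room temperature with compound from a ⅓ dilution series (500-0.025 μM DMSO stocks). Z-Leu-Arg-AMC (8 μM) was then added, and AMC release was followed fluorometrically (Ex 360/Em 460 nm) for 30 min; inhibition was fitted to a dose-response model.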

| SMILES | IC50 (human cathepsin F) [nM] | IC50 (human cathepsin K) [nM] |
| --- | --- | --- |
| N#CC1(NC(=O)[C@@H]2CC(F)(F)CC[C@H]2c2sc(CC(F)(F)F)nc2-c2ccc(N3CCS(=O)(=O)CC3)cc2)CC1 [Example 57, (1R,2R)-N-(1-cyanocyclopropyl)-2-(4-(4-(1,1-dioxidothiomorpholino)phenyl)-2-(2,2,2-trifluoroethyl)thiazol-5-yl)-5,5-difluorocyclohexane-carboxamide] | 93 | 0.58 |
| CC(C)(C)c1nc(-c2ccc(N3CCS(=O)(=O)CC3)cc2)c([C@@H]2CCC(F)(F)C[C@H]2C(=O)NC2(C#N)CC2)s1 [Example 58, (1R,2R)-2-(2-(tert-butyl)-4-(4-(1,1-dioxidothiomorpholino)phenyl)thiazol-5-yl)-N-(1-cyanocyclopropyl)-5,5-difluorocyclohexane-carboxamide] | 72 | 0.67 |
| Cc1nc(-c2ccc(N3CCS(=O)(=O)CC3)cc2)c([C@@H]2CCC(F)(F)C[C@H]2C(=O)NC2(C#N)CC2)s1 [Example 59, (1R,2R)-N-(1-cyanocyclopropyl)-2-(4-(4-(1,1-dioxidothiomorpholino)phenyl)-2-methylthiazol-5-yl)-5,5-difluorocyclohexane-carboxamide] | 389 | 0.51 |
| N#CC1(NC(=O)[C@@H]2CCCC[C@H]2c2sc(C(F)(F)F)nc2-c2ccc(N3CCS(=O)(=O)CC3)cc2)CC1 [Example 60, (1R,2R)-N-(1-cyanocyclopropyl)-2-(4-(4-(1,1-dioxidothiomorpholino)phenyl)-2-(trifluoromethyl)thiazol-5-yl)cyclohexanecarboxamide] | 3290 | 4.37 |
| N#CC1(NC(=O)[C@@H]2CCCC[C@H]2c2oc(-c3ccc(OC(F)(F)F)cc3)nc2-c2ccc(N3CCS(=O)(=O)CC3)cc2)CC1 [Example 61, (1R,2R)-N-(1-cyanocyclopropyl)-2-(4-(4-(1,1-dioxidothiomorpholino)phenyl)-2-(4-(trifluoromethoxy)phenyl)oxazol-5-yl)cyclohexanecarboxamide] | 511 | 1.36 |
| N#CC1(NC(=O)[C@@H]2CCCC[C@H]2c2oc(-c3cccc(F)c3)nc2-c2ccc(N3CCS(=O)(=O)CC3)cc2)CC1 [Example 62, (1R,2R)-N-(1-cyanocyclopropyl)-2-(4-(4-(1,1-dioxidothiomorpholino)phenyl)-2-(3-fluorophenyl)oxazol-5-yl)cyclohexanecarboxamide] | 492 | 0.92 |
| N#CC1(NC(=O)[C@@H]2CCCC[C@H]2c2oc(-c3ccccc3OC(F)(F)F)nc2-c2ccc(N3CCS(=O)(=O)CC3)cc2)CC1 [Example 63, (1R,2R)-N-(1-cyanocyclopropyl)-2-(4-(4-(1,1-dioxidothiomorpholino)phenyl)-2-(2-(trifluoromethoxy)phenyl)oxazol-5-yl)cyclohcxanecarboxamide] | 639 | 1.23 |
| N#CC1(NC(=O)[C@@H]2CCCC[C@H]2c2oc(-c3ccc(OC(F)F)cc3)nc2-c2ccc(N3CCS(=O)(=O)CC3)cc2)CC1 [Example 64, (1R,2R)-N-(1-cyanocyclopropyl)-2-(2-(4-(difluoromethoxy)phenyl)-4-(4-(1,1-dioxidothiomorpholino)phenyl)oxazol-5-yl)cyclohexanecarboxamide] | 573 | 1.04 |
| N#CC1(NC(=O)[C@@H]2CCCC[C@H]2c2oc(-c3ccc(C(F)(F)F)cc3)nc2-c2ccc(N3CCS(=O)(=O)CC3)cc2)CC1 [Example 65, (1R,2R)-N-(1-cyanocyclopropyl)-2-(4-(4-(1,1-dioxidothiomorpholino)phenyl)-2-(4-(trifluoromethyl)phenyl)oxazol-5-yl)cyclohexanecarboxamide] | 825 | 1.3 |
| N#CC1(NC(=O)[C@@H]2CCCC[C@H]2c2oc(-c3cccc(C(F)(F)F)c3)nc2-c2ccc(N3CCS(=O)(=O)CC3)cc2)CC1 [Example 66, (1R,2R)-N-(1-cyanocyclopropyl)-2-(4-(4-(1,1-dioxidothiomorpholino)phenyl)-2-(3-(trifluoromethyl)phenyl)oxazol-5-yl)cyclohexanecarboxamide] | 454 | 1.21 |
| N#CC1(NC(=O)[C@@H]2CCCC[C@H]2c2oc(-c3ccccc3F)nc2-c2ccc(N3CCS(=O)(=O)CC3)cc2)CC1 [Example 67, (1R,2R)-N-(1-cyanocyclopropyl)-2-(4-(4-(1,1-dioxidothiomorpholino)phenyl)-2-(2-fluorophenyl)oxazol-5-yl)cyclohexanecarboxamide] | 619 | 0.57 |
| N#CC1(NC(=O)[C@@H]2CCCC[C@H]2c2oc(-c3cccc(OC(F)F)c3)nc2-c2ccc(N3CCS(=O)(=O)CC3)cc2)CC1 [Example 68, (1R,2R)-N-(1-cyanocyclopropyl)-2-(2-(3-(difluoromethoxy)phenyl)-4-(4-(1,1-dioxidothiomorpholino)phenyl)oxazol-5-yl)cyclohexanecarboxamide] | 502 | 1.04 |
| N#CC1(NC(=O)[C@@H]2CCCC[C@H]2c2oc(-c3ccccc3C(F)(F)F)nc2-c2ccc(N3CCS(=O)(=O)CC3)cc2)CC1 [Example 69, (1R,2R)-N-(1-cyanocyclopropyl)-2-(4-(4-(1,1-dioxidothiomorpholino)phenyl)-2-(2-(trifluoromethyl)phenyl)oxazol-5-yl)cyclohexanecarboxamide] | 827 | 2.94 |
| COc1ccc(-c2nc(-c3ccc(N4CCS(=O)(=O)CC4)cc3)c([C@@H]3CCCC[C@H]3C(=O)NC3(C#N)CC3)o2)cc1 [Example 70] | 734 | 1.84 |
| COc1cccc(-c2nc(-c3ccc(N4CCS(=O)(=O)CC4)cc3)c([C@@H]3CCCC[C@H]3C(=O)NC3(C#N)CC3)o2)c1 [Example 71, (1R,2R)-N-(1-cyanocyclopropyl)-2-(4-(4-(1,1-dioxidothiomorpholino)phenyl)-2-(3-methoxyphenyl)oxazol-5-yl)cyclohexanecarboxamide] | 511 | 1.59 |
| COc1ccccc1-c1nc(-c2ccc(N3CCS(=O)(=O)CC3)cc2)c([C@@H]2CCCC[C@H]2C(=O)NC2(C#N)CC2)o1 [Example 72, (1R,2R)-N-(1-cyanocyclopropyl)-2-(4-(4-(1,1-dioxidothiomorpholino)phenyl)-2-(2-methoxyphenyl)oxazol-5-yl)cyclohexanecarboxamide] | 750 | 1.49 |
| Cc1ncc(-c2nc(-c3ccc(N4CCS(=O)(=O)CC4)cc3)c([C@@H]3CCCC[C@H]3C(=O)NC3(C#N)CC3)o2)s1 [Example 73, (1R,2R)-N-(1-cyanocyclopropyl)-2-(4-(4-(1,1-dioxidothiomorpholino)phenyl)-2-(2-methylthiazol-5-yl)oxazol-5-yl)cyclohexanecarboxamide] | 1490 | 1.42 |
| N#Cc1ccc(-c2nc(-c3ccc(N4CCS(=O)(=O)CC4)cc3)c([C@@H]3CCCC[C@H]3C(=O)NC3(C#N)CC3)o2)cc1 [Example 74, (1R,2R)-N-(1-cyanocyclopropyl)-2-(2-(4-cyanophenyl)-4-(4-(1,1-dioxidothiomorpholino)phenyl)oxazol-5-yl)cyclohexanecarboxamide] | 645 | 1.46 |
| N#CC1(NC(=O)[C@@H]2CCCC[C@H]2c2oc(-c3ccccc3Cl)nc2-c2ccc(N3CCS(=O)(=O)CC3)cc2)CC1 [Example 75, (1R,2R)-2-(2-(2-chlorophenyl)-4-(4-(1,1-dioxidothiomorpholino)phenyl)oxazol-5-yl)-N-(1-cyanocyclopropyl) cyclohexanecarboxamide] | 865 | 2.06 |
| N#CC1(NC(=O)[C@@H]2CCCC[C@H]2c2oc(-c3cccc(C4CC4)c3)nc2-c2ccc(N3CCS(=O)(=O)CC3)cc2)CC1 [Example 77, (1R,2R)-N-(1-cyanocyclopropyl)-2-(2-(3-cyclopropylphenyl)-4-(4-(1,1-dioxidothiomorpholino)phenyl)oxazol-5-yl)cyclohexanecarboxamide] | 533 | 0.65 |
| N#CC1(NC(=O)[C@@H]2CCCC[C@H]2c2oc(-c3nccs3)nc2-c2ccc(N3CCS(=O)(=O)CC3)cc2)CC1 [Example 78, (1R,2R)-N-(1-cyanocyclopropyl)-2-(4-(4-(1,1-dioxidothiomorpholino)phenyl)-2-(thiazol-2-yl)oxazol-5-yl)cyclohexanecarboxamide] | 2650 | 2.49 |
| N#CC1(NC(=O)[C@@H]2CCCC[C@H]2c2oc(-c3ccccc3C3CC3)nc2-c2ccc(N3CCS(=O)(=O)CC3)cc2)CC1 [Example 79, (1R,2R)-N-(1-cyanocyclopropyl)-2-(2-(2-cyclopropylphenyl)-4-(4-(1,1-dioxidothiomorpholino)phenyl)oxazol-5-yl)cyclohexanecarboxamide] | 124 | 0.51 |
| N#CC1(NC(=O)[C@@H]2CCCC[C@H]2c2oc(-c3ncccc3C(F)(F)F)nc2-c2ccc(N3CCS(=O)(=O)CC3)cc2)CC1 [Example 80, (1R,2R)-N-(1-cyanocyclopropyl)-2-(4-(4-(1,1-dioxidothiomorpholino)phenyl)-2-(3-(trifluoromethyl)pyridin-2-yl)oxazol-5-yl)cyclohexanecarboxamide] | 1490 | 2.43 |
